Laboratory results published in US7335815B2, “Nucleic acid sequences to proteins involved in isoprenoid synthesis” (Calgene LLC, priority 1999, dated 2008).

Key:
[1] = background statement; cited from earlier work
[2] = system: E. coli strain JC7623dxr:CAT; test: growth of dxr-disrupted E. coli strain JC7623dxr:CAT (ME auxotrophy, complementation studies); format: cell-based, Escherichia coli; settings: strain JC7623dxr:CAT carrying plasmid pBAD-DXR or pBAD-GFPuv
Description: The region extending from the 5′-region of the dxr gene to the 3′-flanking region of the yaeS gene was amplified by PCR using genomic DNA isolated from the wild type E. coli strain-W3110 (Kohara et al., 1987) and the primers P1(5′-CTCTGGATGT CATATGAAGCAACTC-3′ (SEQ ID NO:3); the underlined ATG corresponds to the translation start codon of the dxr gene) and P2 (5′-CCGCATAACACCGCCAACC-3′ (SEQ ID NO:4); located at the 3′-flanking region of the yaeS gene). The reaction mixture for the PCR was prepared in a final volume of 50 μl, containing the DNA template (100 ng), 0.5 μM of each primer, 200 μM of each deoxynucleoside triphosphate, 20 mM of Tris-HCl adjusted to pH 8.8, 2 mM Of MgSO4, 10 mM of KCI, 10 mM of (NH4)2SO4, 0.1 mg/ml of BSA and 0.1% Triton X-100. The sample was covered with mineral oil, incubated at 94° C. for 3 min and cooled to 80° C. Pfu DNA polymerase (1.25 units, Stratagene) was added and the reaction mixture was incubated for 30 cycles consisting of 45 sec at 94° C., 45 sec at 59° C. and 10 min at 72° C., followed by a final step of 10 min at 72° C. After amplification, adenines were added to the 3′ ends of the PCR product as indicated by the manufacturers protocol and the adenylated product was cloned into the pGEM-T vector (Promega), to create plasmid pMJ1. […]

SMILES: Cc1c(C)c2c(c(C)c1O)CC[C@@](C)(CCC[C@H](C)CCC[C@H](C)CCCC(C)C)O2 [d-α-tocopherol]
- vitamin E activity [1]: 1.49 IU/mg

SMILES: C[C@](O)(CO)[C@H](O)CO [ME, 2-C-methyl-D-erythritol]
- growth of strain on medium containing the substance [2]: grows on medium containing ME

SMILES: Cc1c(C)c2c(c(C)c1O)CCC(C)(CCCC(C)CCCC(C)CCCC(C)C)O2 (stereo not drawn) [synthetic α-tocopherol, d,l-α-tocopherol]
- vitamin E activity [1]: 1.1 IU/mg
